{
  "source": "patent US20120052056A1",
  "about": "“COMPOSITION FOR IMPROVING BLOOD CIRCULATION CONTAINING FERMENTED TEA, AND PHARMACEUTICAL AND HEALTH-FOOD COMPOSITIONS COMPRISING THE SAME” (priority 2009, published 2012)",
  "tested_on": "rats fed high-cholesterol diet inducing hyperlipidemia",
  "test": "Reduction in the serum and liver lipid levels in animal model",
  "type": "in vivo",
  "settings": "200 mg/kg oral once a day for 4 weeks with hyperlipidemia-inducing diet",
  "protocol": "Eight 8-week-old female rats weighing 250-300 g were housed in each polycarbonate cage under a 12 hr light/12 hr dark cycle at a constant temperature of 22±2° C. and a relative humidity of 55±15%. The animals were fed with a normal diet and a high-cholesterol diet and given drinking water ad libitum. The test animals were divided into four groups: a normal group, a control group, a positive control group, and a test group. The normal group was provided only with general feed, the control group was fed with a normal diet containing 1% cholesterol and 0.5% cholic acid to cause hyperlipidemia, and the positive control group was administered with fenofibric acid (200 mg/kg) that is used as an agent for treating hyperlipidemia, in which the fenofibric acid was suspended in 1% methyl cellulose (MC) and administered orally. The test group was administered orally with the post-fermented tea extract and the green tea extract every day together with a hyperlipidemia-inducing diet, in which the post-fermented tea extract and the green tea extract (200 mg/kg) were provided by oral administration once a day for 4 weeks. After the rats of each group were fasted for 12 hours, a blood sample was taken from the orbital vein and centrifuged at 10000 rcf for 10 minutes. The resulting serum was used to evaluate blood total cholesterol, LDL cholesterol and HDL-cholesterol levels. The rat's liver was collected and used to evaluate the liver cholesterol and triglyceride levels. The above analysis was carried out using an automatic blood analyzer and a Roche diagnostic kit, and the results of the analysis are shown in Table 4 (serum lipids) below and Table 5 (liver lipids).",
  "data": [
    {"smiles": "CC(C)(Oc1ccc(C(=O)c2ccc(Cl)cc2)cc1)C(=O)O", "note": "[Positive control group, fenofibric acid]", "values": [
      {"measurement": "Liver lipids: Total cholesterol", "setting": "liver", "value": "15.43 ± 0.52", "unit": "µg/mg"},
      {"measurement": "Liver lipids: Triglyceride", "setting": "liver", "value": "185.39 ± 23.84", "unit": "µg/mg"},
      {"measurement": "Serum lipids: HDL-cholesterol", "setting": "serum", "value": "87.89 ± 6.84", "unit": "mg/dL"},
      {"measurement": "Serum lipids: LDL-cholesterol", "setting": "serum", "value": "75.34 ± 2.80", "unit": "mg/dL"},
      {"measurement": "Serum lipids: Total cholesterol", "setting": "serum", "value": "112.42 ± 13.33", "unit": "mg/dL"}
    ]}
  ]
}
